Source: US7767716B2, “Acyl hydrazines as kinase inhibitors, in particular for SGK” (Merck Patent GmbH, priority 2005, dated 2010)

Compared with CCc1c(C(=O)NNC(=O)Cc2cccc(O)c2)ccc(O)c1Cl [compound 84], Cc1cc(C(=O)NNC(=O)Cc2cccc(O)c2)c(O)cc1O [compound 87] is lower in melting point: 259 °C for the first, 240 °C for the second.

First: NC(=O)c1cc(C(=O)NNC(=O)Cc2cccc(O)c2)c(O)cc1O [compound 85]
Second: N#Cc1cc(C(=O)NNC(=O)Cc2cccc(O)c2)c(O)cc1O [compound 86]
The melting point of the first is higher: 260 to 261 °C for the first, 258 °C for the second.

Work on O=C(Cc1cccc(O)c1)NNC(=O)c1cc(Cl)c(O)cc1C(F)(F)F [compound 88] yielded a melting point of 200 to 202 °C.
